Measured values as given in patent US20230128402A1 (The Trustees of Princeton University, priority 2020, published 2023).

Tests used:
ALDH1a3 = target: T1, ALDH1a3 (Homo sapiens, UniProt P47895); experiment: Aldh1a3 enzyme inhibition assay, recombinant hALDH1a3; format: biochemical; parameters: made in house; host or cells: E. coli BL21-DE3, pET-Aldh1a3; conditions: resorufin fluorescence, 20° C.
T1 sequence (P47895 1-512): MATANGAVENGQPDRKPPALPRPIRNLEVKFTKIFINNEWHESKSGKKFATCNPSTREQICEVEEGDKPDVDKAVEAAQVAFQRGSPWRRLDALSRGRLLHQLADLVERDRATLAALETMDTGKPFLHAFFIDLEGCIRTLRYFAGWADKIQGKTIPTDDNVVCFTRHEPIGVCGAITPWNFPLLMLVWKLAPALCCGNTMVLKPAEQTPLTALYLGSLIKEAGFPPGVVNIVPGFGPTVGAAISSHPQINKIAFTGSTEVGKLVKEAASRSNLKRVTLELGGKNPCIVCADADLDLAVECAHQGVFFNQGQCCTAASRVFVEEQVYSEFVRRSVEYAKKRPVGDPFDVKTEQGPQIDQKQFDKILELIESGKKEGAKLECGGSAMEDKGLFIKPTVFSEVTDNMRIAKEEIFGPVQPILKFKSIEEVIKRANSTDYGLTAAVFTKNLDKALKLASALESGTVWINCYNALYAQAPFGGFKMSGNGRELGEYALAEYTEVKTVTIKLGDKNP
Excerpt: (§1) Recombinant enzyme and inhibitor added immediately before assay. Reaction rate measured by resorufin fluorescence.

mALDH1a3 = target: T2, mALDH1a3 (Mus musculus, UniProt Q9JHW9); experiment: Aldh1a3 enzyme inhibition assay, recombinant mALDH1a3; format: biochemical; conditions: resorufin fluorescence, 20° C.
T2 construct: made in house; host or cells: E. coli BL21-DE3, pET-Aldh1a3
T2 sequence (Q9JHW9 1-512): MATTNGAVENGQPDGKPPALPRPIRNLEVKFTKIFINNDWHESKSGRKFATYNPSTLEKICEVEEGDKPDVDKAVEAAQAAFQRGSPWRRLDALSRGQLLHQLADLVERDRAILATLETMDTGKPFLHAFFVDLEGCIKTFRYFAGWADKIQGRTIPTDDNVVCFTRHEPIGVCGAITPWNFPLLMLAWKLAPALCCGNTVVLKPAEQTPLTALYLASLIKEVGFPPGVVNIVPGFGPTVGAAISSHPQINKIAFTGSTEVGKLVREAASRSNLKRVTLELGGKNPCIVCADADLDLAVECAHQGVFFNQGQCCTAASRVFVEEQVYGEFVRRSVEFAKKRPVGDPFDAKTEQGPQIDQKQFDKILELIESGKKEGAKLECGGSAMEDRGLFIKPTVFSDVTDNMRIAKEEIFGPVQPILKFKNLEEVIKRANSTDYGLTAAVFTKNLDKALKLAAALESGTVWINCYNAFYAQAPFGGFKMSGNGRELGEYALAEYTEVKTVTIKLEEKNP
Excerpt: as §1

Row | Compound | IC50 (ALDH1a3) | IC50 (mALDH1a3)
1 | CCc1cnccc1C(=O)Nc1ccc2c(c1F)CCC(=O)N2 [Compound 85] | > 5 µM | > 5 µM
2 | N#Cc1cccc2nc(Nc3ccc4c(c3)CCC(=O)N4)ccc12 [Compound 86, 2-[(2-oxo-3,4-dihydro-1H-quinolin-6-yl)amino]quinoline-5-carbonitrile] | > 5 µM | 1 to 5 µM
3 | Cc1cccc2nc(Nc3ccc4c(c3)CCC(=O)N4)ccc12 [Compound 87, 6-[(5-methyl-2-quinolyl)amino]-3,4-dihydro-1H-quinolin-2-one] | 0.25 to 1 µM | < 0.1 µM
4 | N#Cc1ccc2nc(Nc3ccc4c(c3)CCC(=O)N4)ccc2c1 [Compound 88, 2-[(2-oxo-3,4-dihydro-1H-quinolin-6-yl)amino]quinoline-6-carbonitrile] | > 5 µM | > 5 µM
5 | Cc1ccc2nc(Nc3ccc4c(c3)CCC(=O)N4)ccc2c1 [Compound 89, 6-[(6-methyl-2-quinolyl)amino]-3,4-dihydro-1H-quinolin-2-one] | > 5 µM | 1 to 5 µM
6 | N#Cc1ccc2ccc(Nc3ccc4c(c3)CCC(=O)N4)nc2c1 [Compound 90, 2-[(2-oxo-3,4-dihydro-1H-quinolin-6-yl)amino]quinoline-7-carbonitrile] | > 5 µM | > 5 µM
7 | Cc1ccc2ccc(Nc3ccc4c(c3)CCC(=O)N4)nc2c1 [Compound 91, 6-[(7-methyl-2-quinolyl)amino]-3,4-dihydro-1H-quinolin-2-one] | > 5 µM | 1 to 5 µM
8 | CC1(C)Cc2cc(Nc3cnc4ccccc4n3)ccc2NC1=O [Compound 92, 3,3-dimethyl-6-(quinoxalin-2-ylamino)-1,4-dihydroquinolin-2-one] | 0.1 to 0.25 µM | 0.1 to 0.25 µM
9 | CC1(C)Cc2cc(Nc3ncc4ccccc4n3)ccc2NC1=O [Compound 93, 3,3-dimethyl-6-(quinazolin-2-ylamino)-1,4-dihydroquinolin-2-one] | 0.25 to 1 µM | 0.25 to 1 µM
10 | CC1(C)Cc2cc(Nc3ccc4ccncc4n3)ccc2NC1=O [Compound 94, 3,3-dimethyl-6-(1,7-naphthyridin-2-ylamino)-1,4-dihydroquinolin-2-one] | 1 to 5 µM | > 5 µM
11 | CC1(C)Cc2cc(Nc3ccc4cnccc4n3)ccc2NC1=O [Compound 95, 3,3-dimethyl-6-(1,6-naphthyridin-2-ylamino)-1,4-dihydroquinolin-2-one] | > 5 µM | > 5 µM
12 | Cc1ccc(Nc2ccc3c(c2)CC(C)(C)C(=O)N3)nc1C [Compound 96, 6-[(5,6-dimethyl-2-pyridyl)amino]-3,3-dimethyl-1,4-dihydroquinolin-2-one] | > 5 µM | > 5 µM
13 | CC1(C)Cc2cc(Nc3ccc(Cl)c(Cl)n3)ccc2NC1=O [Compound 97, 6-[(5,6-dichloro-2-pyridyl)amino]-3,3-dimethyl-1,4-dihydroquinolin-2-one] | 1 to 5 µM | > 5 µM
14 | CC1(C)Cc2cc(Nc3nc4ccccc4[nH]3)ccc2NC1=O [Compound 98, 6-(1H-benzimidazol-2-ylamino)-3,3-dimethyl-1,4-dihydroquinolin-2-one] | 1 to 5 µM | 1 to 5 µM
15 | CC1(C)Cc2cc(Nc3nc4ccccc4o3)ccc2NC1=O [Compound 99, 6-(1,3-benzoxazol-2-ylamino)-3,3-dimethyl-1,4-dihydroquinolin-2-one] | 0.25 to 1 µM | 0.25 to 1 µM
16 | N#Cc1cccc2ncc(Nc3ccc4c(c3)CCC(=O)N4)cc12 [Compound 100, 3-[(2-oxo-3,4-dihydro-1H-quinolin-6-yl)amino]quinoline-5-carbonitrile] | > 5 µM | > 5 µM
17 | Cc1cccc2ncc(Nc3ccc4c(c3)CCC(=O)N4)cc12 [Compound 101, 6-[(5-methyl-3-quinolyl)amino]-3,4-dihydro-1H-quinolin-2-one] | 1 to 5 µM | 1 to 5 µM
18 | O=S1(=O)CCc2cc(Nc3ccc4ccccc4n3)ccc2N1 [Compound 102] | > 5 µM | > 5 µM
19 | CC1(C)Cc2cc(Nc3ccc4cnccc4c3)ccc2NC1=O [Compound 103, 6-(6-isoquinolylamino)-3,3-dimethyl-1,4-dihydroquinolin-2-one] | > 5 µM | > 5 µM

Row | Compound | IC50 (ALDH1a3) | IC50 (mALDH1a3)
20 | CC1(C)Cc2cc(Nc3ccc4ccncc4c3)ccc2NC1=O [Compound 104, 6-(7-isoquinolylamino)-3,3-dimethyl-1,4-dihydroquinolin-2-one] | > 5 µM | > 5 µM
21 | CC1(C)Cc2cc(NC3COc4ccccc4C3)ccc2NC1=O (centres unmarked) [Compound 105, 6-(chroman-3-ylamino)-3,3-dimethyl-1,4-dihydroquinolin-2-one] | > 5 µM | > 5 µM
22 | CC1(C)Cc2cc(NN3CCC(c4ccccc4)C3=O)ccc2NC1=O (centres unmarked) [Compound 106] | > 5 µM | > 5 µM
23 | CC1(C)Cc2cc(Nc3ncc4ccccc4n3)c(F)cc2NC1=O [Compound 108, 7-fluoro-3,3-dimethyl-6-(quinazolin-2-ylamino)-1,4-dihydroquinolin-2-one] | 1 to 5 µM | 0.25 to 1 µM
24 | CC1(C)Cc2cc(Nc3cnc4ccccc4n3)c(F)cc2NC1=O [Compound 109, 7-fluoro-3,3-dimethyl-6-(quinoxalin-2-ylamino)-1,4-dihydroquinolin-2-one] | 0.1 to 0.25 µM | < 0.1 µM
25 | Cc1cccc2ccc(Nc3ccc4c(c3)CC(C)(C)C(=O)N4)nc12 [Compound 111] | > 5 µM | > 5 µM
26 | CC1(C)Cc2cc(Nc3ccc4c(Cl)cccc4n3)ccc2NC1=O [Compound 112, 6-[(5-chloro-2-quinolyl)amino]-3,3-dimethyl-1,4-dihydroquinolin-2-one] | 0.25 to 1 µM | 0.25 to 1 µM
27 | Cn1ccc2nc(Nc3ccc4c(c3)CC(C)(C)C(=O)N4)ccc21 [Compound 113, 3,3-dimethyl-6-[(1-methylpyrrolo[3,2-b]pyridin-5-yl)amino]-1,4-dihydroquinolin-2-one] | > 5 µM | > 5 µM
28 | CC1(C)Cc2cc(Nc3ccc4c(c3)NC(=O)CC4)ccc2NC1=O [Compound 114, 3,3-dimethyl-6-[(2-oxo-3,4-dihydro-1H-quinolin-7-yl)amino]-1,4-dihydroquinolin-2-one] | > 5 µM | > 5 µM
29 | CC1(C)Cc2cc(Nc3c[nH]c4ccccc4c3=O)ccc2NC1=O [Compound 115, 3,3-dimethyl-6-[(4-oxo-1H-quinolin-3-yl)amino]-1,4-dihydroquinolin-2-one] | > 5 µM | > 5 µM
30 | CC1(C)Cc2cc(Nc3nc(=O)c4ccccc4[nH]3)ccc2NC1=O [Compound 116, 2-[(3,3-dimethyl-2-oxo-1,4-dihydroquinolin-6-yl)amino]-1H-quinazolin-4-one] | 0.25 to 1 µM | 1 to 5 µM
31 | CC1(C)Cc2cc(Nc3cnc4ccc(C(=O)O)cc4n3)ccc2NC1=O [Compound 118, 3-[(3,3-dimethyl-2-oxo-1,4-dihydroquinolin-6-yl)amino]quinoxaline-6-carboxylic acid] | > 5 µM | > 5 µM
32 | O=C1CCc2cc(Oc3ncc4ccccc4n3)ccc2N1 [Compound 119, 6-quinazolin-2-yloxy-3,4-dihydro-1H-quinolin-2-one] | > 5 µM | > 5 µM
33 | COC(=O)c1ccc2ncc(Nc3ccc4c(c3)CC(C)(C)C(=O)N4)nc2c1 [Compound 120, methyl 3-[(3,3-dimethyl-2-oxo-1,4-dihydroquinolin-6-yl)amino]quinoxaline-6-carboxylate] | > 5 µM | > 5 µM
34 | CC1(C)Cc2cc(Nc3cccc(Cl)n3)ccc2NC1=O [Compound 122, 6-[(6-chloro-2-pyridyl)amino]-3,3-dimethyl-1,4-dihydroquinolin-2-one] | > 5 µM | > 5 µM
35 | CC1(C)Cc2cc(Nc3ccc(Cl)cn3)ccc2NC1=O [Compound 123, 6-[(5-chloro-2-pyridyl)amino]-3,3-dimethyl-1,4-dihydroquinolin-2-one] | > 5 µM | > 5 µM
36 | CC1(C)Cc2cc(Nc3cc(Cl)c(Cl)cn3)ccc2NC1=O [Compound 125, 6-[(4,5-dichloro-2-pyridyl)amino]-3,3-dimethyl-1,4-dihydroquinolin-2-one] | 0.25 to 1 µM | > 5 µM
37 | O=C1CCc2cc(Nc3cnc4ccccc4n3)ncc2N1 [Compound 126, 6-(quinoxalin-2-ylamino)-3,4-dihydro-1H-1,7-naphthyridin-2-one] | 0.25 to 1 µM | < 0.1 µM
